≈ marks a conversion by molar mass, not a printed value. Where two headings read alike, the source gives them in different places.
Columns and labels:
[1] = highest serum concentration reached after the maximum therapeutic dose in-vivo; cited from earlier work
Staphylococcus aureus [2] = experiment: Agar Dilution Method of Sensitivity testing, NE alone and NE + antibiotic; type: cell-based; conditions: resistant S. aureus cultures, 48 hours
Description: Two kinds of investigations were carried-out using these bacterial isolates—using an Agar Dilution Method of Sensitivity testing.
i) To ascertain whether, NE can work as an antibacterial substance on its own. For this purpose, a stock-solution of NE was prepared and was sterilized as described in the preliminary experiments.
ii) This stock-solution was dispensed into the culture medium (Mueller Hinton Agar) so as to provide while; the medium was in liquid form. Four different concentrations of NE, viz.
iii) This medium was poured into petri dishes and allowed to solidify. Resistant cultures were inoculated on to these plates and after incubation for 48 hours, the growth patterns were assessed.
iv) The experiments were run in triplicate, for each concentration—as per standard practices of microbiological testing procedures.
i) The culture medium (Mueller Hinton Agar) was melted and distributed into a number of test tubes.
ii) The stock solution of NE was dispensed into these test tubes in four different concentrations viz.
iii) In the same medium, one of the antibiotics under investigation was also added so as to provide a variable concentration (at break-even point concentration) as described below:
iv) The culture medium containing NE extract+the antibiotic were poured into petri dishes and allowed to solidify.
v) The resistant bacterial strains were inoculated onto these plates, incubated for 48 hours and the growth patterns were studied on each plate.
These cultures were obtained various clinical samples, such as sputum, non-healing infected wounds, throat swabs etc.

Enterobacter spp. [3] = experiment: Broth Macro Dilution Test, MIC and MBC; type: cell-based; conditions: antibiotic alone
From the text: (§1) This was done by estimation of the Minimum Inhibitory Concentration (MIC) and Minimum Bactericidal Concentration (MBC) on the selected isolates by a Broth Macro Dilution Test.
(§2) While conducting these tests, the guidelines given by the National committee of Clinical Laboratory Standards 1995 protocols were employed. Cation Supplemented Mueller Hinton Broth was used as medium for all organisms excepting for β haemolytic streptococci for which, Todd Hewit's Broth was used as medium.
(§3) The following concentrations of antibiotics were tested to determine MIC and MBC.
(§4) A minimum inhibitory concentration is the lowest level of antibiotic needed to cause an inhibition to bacterial growth in culture medium whereas, the minimum bactericidal concentration is the lowest concentration of antibiotic to achieve a 100% killing of bacteria. Thus, these two values are the practical indices of intensity of bacterial resistance to a given antibiotic. On the other hand, a break-even point of any antibiotic indicates the attainable blood levels after an administration of full dose, in human/animal body. Thus, this point indicates the practical dosage of administering any given antibiotic effectively and beyond this point, even if an antibiotic is found to act effectively in experimental situation—such dose cannot be administered in a clinical situation.

Escherichia coli [4] = experiment: Broth Macro Dilution Test, MIC and MBC; type: cell-based; conditions: resistant to Ciprofloxacin, antibiotic alone, read-out: minimum bactericidal concentration (MBC)
From the text: as §1, §2, §3, §4

Klebsiella pneumoniae [5] = experiment: Broth Macro Dilution Test, MIC and MBC; type: cell-based; conditions: Klebsiella pneumoniae, antibiotic alone
From the text: as §1, §2, §3
(§5) Co-trimoxazole (Sulpharnethoxazole/Trimethoprim/μg/μg per ml)
as §4

Salmonella senftenberg [6] = experiment: Broth Macro Dilution Test, MIC and MBC; type: cell-based; conditions: Salmonella enterica, Example 13: strain from burn wound swab culture, antibiotic alone
From the text: as §1, §2, §3, §5, §4

Staphylococcus aureus [7] = experiment: Broth Macro Dilution Test, MIC and MBC; type: cell-based; conditions: Example 12: strain from non-healing burn wound swab culture, antibiotic alone
Description: as §1
Cation Supplemented Mueller Hinton Broth was used as medium for all organisms excepting for β haemolytic streptococci for which, Todd Hewit's Broth was used as medium.
as §3, §4

Enterobacter spp. [8] = experiment: Broth tube test of NE with antibiotic at break point, percentage of killing; type: cell-based; conditions: for bacterial growth in control tubes: NE and antibiotic added individually; for bactericidal effect: antibiotic 4 μg/ml (break point) combined with NE 125, 250, 500, 1000 μg/ml
Description: (§6) Since all the study isolates are resistant to the concerned antibiotics, each antibiotic is taken at its breakpoint concentration, (the highest serum concentration of that particular antibiotic reached after the maximum therapeutic dose in-vivo). The break points for various antibiotics are as follows:
(§7) Preparation of Neem Extract: Stock solution of neem extract (1 mg/ml) was prepared, filtered and autoclaved. It was used in 4 concentrations—1000 μg/ml; 500 μg/ml; 250 μg/ml; 125 μg/ml.
(§8) A set of four tubes with variable concentrations of the extract is prepared and to each of these tubes, the break point concentration of antibiotics is added. Now, these sets are inoculated with the study isolate in the same manner as per the broth dilution procedure. A set of six controls is inoculated with each isolate—in parallel with the main experiment.
(§9) 2. Only antibiotic solution
(§10) 3. Medium and antibiotic solution with inoculum
(§11) 5. Only Neem extract at 250 μg/ml
(§12) 6. Medium with Neem Extract and inoculum
(§13) Reading the test All the tests and control tubes are observed for visible turbidity of growth first. Since all the study isolates were earlier confirmed to be resistant to the antibiotics, the bacterial growth is expected at the breakpoint concentration of the antibiotic. Any reduction in the turbidity as compared to the control tube no. 3 is noted as a possible additive or synergistic effect of the neem extract with the antibiotic. In absence of such effect, the tubes may show growth matching with the control no. 4.
(§14) In case of a positive result, further sub-culturing was taken up, on solid media for colony counts with a calibrated loop. The colony counts could be noted by a semi quantitative method as 101 to 10^5 CFU/ml (Colony forming units). This is finally expressed as the percentage of killing as compared to the colony count obtained with control no. 4. Usually control tubes no. 3, 4 and 6 had similar colony counts.

Escherichia coli [9] = experiment: as above; type: cell-based; conditions: for bacterial growth in control tubes: NE and antibiotic added individually; for bactericidal effect: antibiotic 4 μg/ml (break point) combined with NE 125, 250, 500, 1000 μg/ml
Description: as §6, §7, §8, §9, §10, §11, §12, §13, §14

Klebsiella pneumoniae [10] = experiment: as above; type: cell-based; conditions: for bacterial growth in control tubes: NE and antibiotic added individually
Description: as §6, §7, §8, §9, §10, §11, §12, §13, §14

Salmonella senftenberg [11] = experiment: as above; type: cell-based; conditions: Example 13 strain
Description: as §6, §7, §8, §9, §10, §11, §12, §13, §14

Staphylococcus aureus [12] = experiment: as above; type: cell-based; conditions: Example 12 strain
Description: as §6, §7, §8, §9, §10, §11, §12, §13, §14

[13] = antibiotic at break-even point + NE 125 μg/mL
[14] = antibiotic at break-even point + NE 250 μg/mL
[15] = antibiotic at break-even point + NE 500 μg/mL
[16] = antibiotic at break-even point + NE 1000 μg/mL
[17] = Example 11: isolate from Endotracheal catheter tip culture

Q: With `CC1(C)S[C@@H]2[C@H](NC(=O)[C@H](N)c3ccc(O)cc3)C(=O)N2[C@H]1C(=O)O` [Amoxacillin] as the molecule, how does the break point [1] read?
A: 16 µg/mL

Q: For `CC1=C(C(=O)O)N2C(=O)[C@@H](NC(=O)[C@H](N)c3ccccc3)[C@H]2SC1` [Cephalexin], which “Growth Patterns after addition of NE: no. of cultures +++ (growth)” value (from here on “Growth Patterns … no. of cultures +++ (growth)”) (Staphylococcus aureus [2]; [13]) is on record?
A: 81

Q: What about the “Growth Patterns after addition of NE: no. of cultures −−− (inhibition of growth)” value (Staphylococcus aureus [2]; [13]) of the same molecule?
A: 21

Q: What about the “Growth Patterns … no. of cultures +++ (growth)” value (Staphylococcus aureus [2]; [14]) of the same molecule?
A: 81

Q: What about the “Growth Patterns after addition of NE: no. of cultures −−− (inhibition of growth)” value (Staphylococcus aureus [2]; [14]) of the same molecule?
A: 21

Q: And the “Growth Patterns … no. of cultures +++ (growth)” value (Staphylococcus aureus [2]; [15])?
A: 81

Q: And the “Growth Patterns after addition of NE: no. of cultures −−− (inhibition of growth)” value (Staphylococcus aureus [2]; [15])?
A: 21

Q: And the “Growth Patterns … no. of cultures +++ (growth)” value (Staphylococcus aureus [2]; [16])?
A: 81

Q: What about the “Growth Patterns after addition of NE: no. of cultures −−− (inhibition of growth)” value (Staphylococcus aureus [2]; [16]) of the same molecule?
A: 21

Q: What about the break point [1] of the same molecule?
A: 18 µg/mL

Q: What does the source list for `O=C(O)c1cn(C2CC2)c2cc(N3CCNCC3)c(F)cc2c1=O` [Ciprofloxacin]?
A: MBC (Enterobacter spp. [3]; Enterobacter, Example 10: isolate from Endotracheal Catheter Tip culture, read-out: minimum bactericidal concentration (MBC)): > 128 µg/mL; MIC (Enterobacter spp. [3]; Enterobacter, Example 10: isolate from Endotracheal Catheter Tip culture, read-out: minimum inhibitory concentration (MIC)): 32 µg/mL (≈ 96.6 µM); minimum bactericidal concentration (MBC) (Enterobacter spp. [3]; [17]): > 128 µg/mL; minimum inhibitory concentration (MIC) (Enterobacter spp. [3]; [17]): 32 µg/mL (≈ 96.6 µM); MBC (Escherichia coli [4]; Example 1: isolate from wound infection): 64 µg/mL (≈ 193 µM); MBC (Escherichia coli [4]; Example 2: isolate from endotracheal catheter tip culture): > 128 µg/mL; MBC (Klebsiella pneumoniae [5]; Example 3: strain from non-healing burn wound, read-out: MBC): > 64 µg/mL; MIC (Klebsiella pneumoniae [5]; Example 3: strain from non-healing burn wound, read-out: MIC): 16 µg/mL (≈ 48.3 µM); MBC (Klebsiella pneumoniae [5]; Example 4: strain from wound swab culture, read-out: MBC): > 128 µg/mL; MIC (Klebsiella pneumoniae [5]; Example 4: strain from wound swab culture, read-out: MIC): 32 µg/mL (≈ 96.6 µM); MBC (Klebsiella pneumoniae [5]; Example 5: isolate from Endotracheal Catheter Tip culture, read-out: minimum bactericidal concentration (MBC)): > 128 µg/mL; MIC (Klebsiella pneumoniae [5]; Example 5: isolate from Endotracheal Catheter Tip culture, read-out: minimum inhibitory concentration (MIC)): 32 µg/mL (≈ 96.6 µM); MBC (Klebsiella pneumoniae [5]; Example 6: isolate from Endotracheal Catheter tip culture, read-out: minimum bactericidal concentration (MBC)): > 128 µg/mL; MIC (Klebsiella pneumoniae [5]; Example 6: isolate from Endotracheal Catheter tip culture, read-out: minimum inhibitory concentration (MIC)): 32 µg/mL (≈ 96.6 µM); MBC (Klebsiella pneumoniae [5]; Example 7: isolate from endotracheal catheter tip culture, read-out: minimum bactericidal concentration (MBC)): > 128 µg/mL; MIC (Klebsiella pneumoniae [5]; Example 7: isolate from endotracheal catheter tip culture, read-out: minimum inhibitory concentration (MIC)): 32 µg/mL (≈ 96.6 µM); MBC (Salmonella senftenberg [6]; read-out: MBC): > 128 µg/mL; MIC (Salmonella senftenberg [6]; read-out: MIC): 32 µg/mL (≈ 96.6 µM); MBC (Staphylococcus aureus [7]): > 128 µg/mL; MIC (Staphylococcus aureus [7]): 32 µg/mL (≈ 96.6 µM); bacterial growth in control tubes (Enterobacter spp. [8]; Example 10 isolate): unhindered; bactericidal effect (Enterobacter spp. [8]; Example 10 isolate): 80%; bacterial growth in control tubes (Enterobacter spp. [8]; Example 11 isolate): unhindered; bactericidal effect (Enterobacter spp. [8]; Example 11 isolate): 50%; bacterial growth in control tubes (Escherichia coli [9]; Example 1 isolate): unhindered; bactericidal effect (Escherichia coli [9]; Example 1 isolate): 100%; bacterial growth in control tubes (Escherichia coli [9]; Example 2 isolate): unhindered; bactericidal effect (Escherichia coli [9]; Example 2 isolate): 40%; killing (Klebsiella pneumoniae [10]; Example 3 strain, antibiotic at break point in combination with NE, uniform at 1000, 500, 250, 125 μg/ml): 99%; killing (Klebsiella pneumoniae [10]; Example 4 strain, antibiotic at break-even concentration with NE, uniform at all four NE concentrations): 90%; bacterial growth in control tubes (Klebsiella pneumoniae [10]; Example 5 isolate): unhindered; bactericidal effect (Klebsiella pneumoniae [10]; Example 5 isolate, antibiotic 4 μg/ml (break-even point) combined with NE 125, 250, 500, 1000 μg/ml): 90%; bacterial growth in control tubes (Klebsiella pneumoniae [10]; Example 6 isolate): unhindered; bactericidal effect (Klebsiella pneumoniae [10]; Example 6 isolate, antibiotic 4 μg/ml (break point) combined with NE 125, 250, 500, 1000 μg/ml): 80%; bacterial growth in control tubes (Klebsiella pneumoniae [10]; Example 7 isolate): unhindered; bactericidal effect (Klebsiella pneumoniae [10]; Example 7 isolate, antibiotic 4 μg/ml (break point) combined with NE 125, 250, 500, 1000 μg/ml): 50%; killing (Salmonella senftenberg [11]; antibiotic added to 1000 μg/ml NE): 50%; killing effect (Salmonella senftenberg [11]; antibiotic with 500 μg/ml NE): somewhat low; killing effect (Salmonella senftenberg [11]; antibiotic with NE at other concentrations (below 500 μg/ml)): not found; killing (Staphylococcus aureus [12]; antibiotic 4 μg/ml in combination with 250 μg/ml and 125 μg/ml NE): 80%; bactericidal effect (Staphylococcus aureus [12]; antibiotic 4 μg/ml with 1000 μg/ml, 500 μg/ml of NE): 20%; break point [1]: 4 µg/mL

— patent US6599541B1, “Composition for treatment of drug resistant bacterial infections and a method of treating drug resistant bacterial infections” (priority 1999, dated 2003)
